Test results taken from patent publication US11013736B2, “Oral solid preparation and use thereof” (WUHAN LL SCIENCE AND TECHNOLOGY DEVELOPMENT CO., LTD., priority 2016, dated 2021).
Entries after “also recorded” stand apart in the source; their conditions may differ.

Columns and labels:
[1] = tested on: spontaneously hypertensive rats; assay: Antihypertensive efficacy test in spontaneously hypertensive rats (systolic blood pressure and heart rate by implanted sensor); format: in vivo; details: SHR; for Systolic blood pressure compared with the control group: after 3 hours of administration; for Systolic blood pressure change, 1 hour after administration / Systolic blood pressure change, 3 hours after administration / Systolic blood pressure change, 5 hours after administration / Systolic blood pressure change, 7 hours after administration / Systolic blood pressure change, 10 hours after administration / Systolic blood pressure change, 24 hours after administration / Systolic blood pressure change, before administration: intragastric; for Systolic blood pressure change, 1 hour after administration / Systolic blood pressure change, 3 hours after administration / Systolic blood pressure change, 5 hours after administration / Systolic blood pressure change, 7 hours after administration / Systolic blood pressure change, 10 hours after administration / Systolic blood pressure change, 24 hours after administration / Heart rates change, 1 hour after administration / Heart rates change, 3 hours after administration / Heart rates change, 5 hours after administration / Heart rates change, 7 hours after administration / Heart rates change, 10 hours after administration / Heart rates change, 24 hours after administration: change vs before administration; for Systolic blood pressure change, 1 hour after administration / Systolic blood pressure change, 3 hours after administration / Systolic blood pressure change, 5 hours after administration / Systolic blood pressure change, 7 hours after administration / Systolic blood pressure change, 10 hours after administration / Systolic blood pressure change, 24 hours after administration / Systolic blood pressure change, before administration / Heart rates change, 1 hour after administration / Heart rates change, 3 hours after administration / Heart rates change, 5 hours after administration / Heart rates change, 7 hours after administration / Heart rates change, 10 hours after administration / Heart rates change, 24 hours after administration / Heart rates change, before administration: average ± standard error; for Systolic blood pressure change, before administration / Heart rates change, before administration: reference value; for Heart rates change, 1 hour after administration / Heart rates change, 3 hours after administration / Heart rates change, 5 hours after administration / Heart rates change, 7 hours after administration / Heart rates change, 10 hours after administration / Heart rates change, 24 hours after administration / Heart rates change, before administration: oral
Experimental: 12-week-old spontaneously hypertensive rats (hereinafter referred to as SHR, purchased from Beijing Weitong Lihua Experimental Animal Technology Co., Ltd.) were anesthetized with 2.5% sodium pentobarbital for intraperitoneal injection. After that, the blood pressure sensing catheter of hypertension implant was inserted into their abdominal aorta, while the implant was fixed to the abdominal wall, and then postoperative daily care is performed after suturing.
Rats with systolic blood pressure exceeding 160 mm Hg were divided into 3 groups (control group, compound (A) group and compound (B) group), wherein each group has 8 rats. The control group was administrated 0.5% sodium carboxymethylcellulose (hereinafter referred to as CMC-Na); the compound (B) group and the compound (A) group were respectively administered the compound (B) and the compound (A), both of which were dissolved by 0.5% CMC-Na, by intragastric administration, at a dose of 1 mg/kg (calculated by the effective dose of valsartan) and a volume calculated by 4 mL/kg.
The systolic blood pressure and heart rate of SHR were compared before and after administration (the systolic blood pressure and heart rate of SHR before administration as reference value), which were detected three times at each time point with the average value recorded.

[2] = Comparative experiment of stability between crystalline form III and IV (drying overnight at room temperature, XRD); format: physicochemical
Source text: (4) Comparative experiment of stability between the crystalline form III and the crystalline form IV
The Crystalline form III and the crystalline form IV samples were respectively dried overnight at room temperature.

[3] = Comparative stability test (total impurity content); format: physicochemical; details: 25° C., 60% relative humidity; for total impurity content % at 0 months / total impurity content % at 1 month / total impurity content % at 2 months / total impurity content % at 3 months / total impurity content % at 6 months: packed
Experimental: The stability of an amorphous form, a mixture of the crystalline forms I and the crystal II, the crystalline form II and the crystal form III of the compound of formula (A) were investigated. Specifically, the amorphous form, the mixture of the crystalline form I and the crystalline form II (weight ratio 1:2), the crystalline form II and the crystalline form III were taken 200 mg respectively to be investigated as follows:
Packing: Polyvinyl chloride (PVC) material ziplock bag (the inner layer) was vacuumized, aluminum foil (the middle layer) was vacuumized, and aluminum foil desiccant (the outer layer) was vacuum and filled in with nitrogen;
Inspection conditions: 25° C., 60% relative humidity. The indicator was the total impurity content, which is determined by detection of samples three times at each time point with the average value recorded. The time points for sampling include 0, 1, 2, 3 and 6 months after packing.

[4] = Room temperature competition test between crystalline forms (ethyl acetate suspension, XRD); format: physicochemical; details: for Relative stability under room temperature (competition test): ethyl acetate suspension
Experimental: (1) Competition experiment between the crystalline form I and the crystalline form II
Equivalent amounts of the crystalline form I and the crystalline form II samples were mixed well, added with 0.8 ml ethyl acetate to form a suspension, stirred overnight and detected by XRD.
(2) Competition experiment between the crystalline form II and the crystalline form III
Equivalent amounts of the crystalline form II and the crystalline form III samples were mixed well, added with 0.2 ml ethyl acetate to form a suspension, which was stirred overnight to obtain the crystalline form II determined by XRD detection.
(3) Competition experiment between crystalline form I and crystalline form III
Equivalent amounts of the crystalline form I and the crystalline form III samples were mixed uniformly, added with 0.2 ml ethyl acetate to form a suspension, which was stirred overnight, to obtain the crystalline form I determined by XRD detection.

[5] = Effect of tabletting processes on the crystalline form II (XRD); format: physicochemical; details: 50 mg, single punching machine, XRD vs crude sample
Experimental: Tabletting method: 50 mg of the crystalline form II was tableted under 20 kg and 25 kg pressure tabletting by a single punching machine.
The XRD of the obtained sample powder was compared with the XRD of the crude sample, the results are shown in FIG. 8 (from top to bottom: the crude sample, the sample after 25 kg pressure tabletting and the sample after 20 kg pressure tabletting).

[6] = Influences of high temperature and high humidity on the crystalline form II (XRD); format: physicochemical; details: XRD vs crude sample
Experimental: Two samples of 20 mg of the crystalline form II were respectively placed at 60° C. (sealed and shielded from light) and 85% relative humidity (exposed in the air at room temperature and shielded from light), detected by XRD after 10 days and compared with the XRD of the crude sample.

[7] = equivalent amounts, 0.2 ml ethyl acetate suspension, stirred overnight, XRD

SMILES: CCOc1nc2cccc(C(=O)OC(C)OC(=O)OCc3nc(C)c(C)nc3C)c2n1Cc1ccc(-c2ccccc2-c2noc(=O)[n-]2)cc1.[K+] (single isomer, unassigned) [Compound (A)]
- Lowering of heart rate compared with the compound (B) group ([1]; 1 mg/kg): more potent with longer-lasting of lowering heart rate
- Antihypertensive effect compared with the compound (B) group ([1]; 1 mg/kg intragastric): more potent with longer-lasting antihypertensive effect
- Systolic blood pressure compared with the control group ([1]; 1 mg/kg): significantly decreased
- Systolic blood pressure change, 1 hour after administration ([1]; 1 mg/kg, 1 mg/kg): −7.0 ± 3.4 mmHg
- Systolic blood pressure change, 3 hours after administration ([1]; 1 mg/kg, 1 mg/kg): −34.3 ± 1.9 mmHg
- Systolic blood pressure change, 5 hours after administration ([1]; 1 mg/kg, 1 mg/kg): −46.5 ± 2.5 mmHg
- Systolic blood pressure change, 7 hours after administration ([1]; 1 mg/kg, 1 mg/kg): −49.4 ± 4.1 mmHg
- Systolic blood pressure change, 10 hours after administration ([1]; 1 mg/kg, 1 mg/kg): −45.3 ± 3.3 mmHg
- Systolic blood pressure change, 24 hours after administration ([1]; 1 mg/kg, 1 mg/kg): −25.9 ± 3.4 mmHg
- Systolic blood pressure change, before administration ([1]; 1 mg/kg): 0.0 ± 0.0 mmHg
- Heart rates change, 1 hour after administration ([1]; 1 mg/kg, 1 mg/kg): −3.6 ± 2.4 times/minute
- Heart rates change, 3 hours after administration ([1]; 1 mg/kg, 1 mg/kg): −5.0 ± 2.5 times/minute
- Heart rates change, 5 hours after administration ([1]; 1 mg/kg, 1 mg/kg): −10.1 ± 3.0 times/minute
- Heart rates change, 7 hours after administration ([1]; 1 mg/kg, 1 mg/kg): −17.5 ± 3.0 times/minute
- Heart rates change, 10 hours after administration ([1]; 1 mg/kg, 1 mg/kg): −25.4 ± 2.4 times/minute
- Heart rates change, 24 hours after administration ([1]; 1 mg/kg, 1 mg/kg): −28.6 ± 8 times/minute
- Heart rates change, before administration ([1]; 1 mg/kg): 0.0 ± 0.0 times/minute

SMILES: CCOc1nc2cccc(C(=O)OC(C)OC(=O)OCc3nc(C)c(C)nc3C)c2n1Cc1ccc(-c2ccccc2-c2noc(=O)[n-]2)cc1.[K+] (single isomer, unassigned) [Compound (B), reference compound]
- Systolic blood pressure compared with the control group ([1]; 1 mg/kg): significantly decreased
- Systolic blood pressure change, 1 hour after administration ([1]; 1 mg/kg, 1 mg/kg): −4.9 ± 4.8 mmHg
- Systolic blood pressure change, 3 hours after administration ([1]; 1 mg/kg, 1 mg/kg): −22.0 ± 3.6 mmHg
- Systolic blood pressure change, 5 hours after administration ([1]; 1 mg/kg, 1 mg/kg): −30.5 ± 3.5 mmHg
- Systolic blood pressure change, 7 hours after administration ([1]; 1 mg/kg, 1 mg/kg): −38.8 ± 2.3 mmHg
- Systolic blood pressure change, 10 hours after administration ([1]; 1 mg/kg, 1 mg/kg): −33.0 ± 1.7 mmHg
- Systolic blood pressure change, 24 hours after administration ([1]; 1 mg/kg, 1 mg/kg): −10.2 ± 2.1 mmHg
- Systolic blood pressure change, before administration ([1]; 1 mg/kg): 0.0 ± 0.0 mmHg
- Heart rates change, 1 hour after administration ([1]; 1 mg/kg, 1 mg/kg): −3.4 ± 2.6 times/minute
- Heart rates change, 3 hours after administration ([1]; 1 mg/kg, 1 mg/kg): −2.33 ± 2.6 times/minute
- Heart rates change, 5 hours after administration ([1]; 1 mg/kg, 1 mg/kg): −6.5 ± 2.8 times/minute
- Heart rates change, 7 hours after administration ([1]; 1 mg/kg, 1 mg/kg): −6.2 ± 3.0 times/minute
- Heart rates change, 10 hours after administration ([1]; 1 mg/kg, 1 mg/kg): −12.3 ± 2.8 times/minute
- Heart rates change, 24 hours after administration ([1]; 1 mg/kg, 1 mg/kg): −6.7 ± 2.6 times/minute
- Heart rates change, before administration ([1]; 1 mg/kg): 0.0 ± 0.0 times/minute

SMILES: CCOc1nc2cccc(C(=O)OC(C)OC(=O)OCc3nc(C)c(C)nc3C)c2n1Cc1ccc(-c2ccccc2-c2noc(=O)[n-]2)cc1.[K+] (centres unmarked) [crystalline form III]
- Portion converted to the crystalline form I ([2]; dried overnight at room temperature, XRD): no more than 30%
- Stability at room temperature (drying experiment) [2]: superior to that of the crystalline form IV
- Chemical stability compared with the amorphous form [3]: better than the amorphous form
- total impurity content % at 0 months [3]: 1.56%
- total impurity content % at 1 month [3]: 2.55%
- total impurity content % at 2 months [3]: 2.98%
- total impurity content % at 3 months [3]: 3.34%
- total impurity content % at 6 months [3]: 3.76%
- Crystal form transformation, competition form I vs form III [4, 7]: completely transformed into the crystalline form I
- Crystal form transformation, competition form II vs form III [4, 7]: completely transformed into the crystalline form II

SMILES: CCOc1nc2cccc(C(=O)OC(C)OC(=O)OCc3nc(C)c(C)nc3C)c2n1Cc1ccc(-c2ccccc2-c2noc(=O)[n-]2)cc1.[K+] (centres unmarked) [crystalline form II]
- Stability at room temperature (drying experiment) [2]: superior to that of the crystalline form IV
- Crystal form after tabletting, 20 kg pressure [5]: remains unchanged
- Crystal form after tabletting, 25 kg pressure [5]: remains unchanged
- Crystal form after 10 days at 85% relative humidity ([6]; exposed in the air at room temperature, shielded from light): remains unchanged
- Crystal form after 10 days at 60° C. ([6]; sealed and shielded from light): remains unchanged
- Chemical stability compared with the amorphous form [3]: better than the amorphous form
- total impurity content % at 0 months [3]: 1.29%
- total impurity content % at 1 month [3]: 1.43%
- total impurity content % at 2 months [3]: 1.59%
- total impurity content % at 3 months [3]: 1.82%
- total impurity content % at 6 months [3]: 1.87%
- Relative stability under room temperature (competition test) [4]: better than that of the crystalline form I; also recorded: better than that of the crystalline form III

SMILES: CCOc1nc2cccc(C(=O)OC(C)OC(=O)OCc3nc(C)c(C)nc3C)c2n1Cc1ccc(-c2ccccc2-c2noc(=O)[n-]2)cc1.[K+] (centres unmarked) [crystalline form IV]
- Crystal form transformation on drying at room temperature ([2]; dried at room temperature, XRD): converted to the crystalline form I; also recorded: completely transformed into the crystalline form I
- Stability at room temperature (drying experiment) [2]: poor stability

SMILES: CCOc1nc2cccc(C(=O)OC(C)OC(=O)OCc3nc(C)c(C)nc3C)c2n1Cc1ccc(-c2ccccc2-c2noc(=O)[n-]2)cc1.[K+] (centres unmarked) [crystalline form I]
- Stability at room temperature (drying experiment) [2]: superior to that of the crystalline form IV
- Chemical stability compared with the amorphous form [3]: better than the amorphous form
- total impurity content % at 0 months [3]: 1.11%
- total impurity content % at 1 month [3]: 1.62%
- total impurity content % at 2 months [3]: 2.34%
- total impurity content % at 3 months [3]: 2.49%
- total impurity content % at 6 months [3]: 3.10%
- Content of the crystalline form I in the obtained product ([4]; equivalent amounts of form I and form II, 0.8 ml ethyl acetate suspension, stirred overnight, XRD): about 5%
- Relative stability under room temperature (competition test) [4]: better than that of the crystalline form III

SMILES: CCOc1nc2cccc(C(=O)OC(C)OC(=O)OCc3nc(C)c(C)nc3C)c2n1Cc1ccc(-c2ccccc2-c2noc(=O)[n-]2)cc1.[K+] (centres unmarked) [mixture of crystalline form I and II]
- Chemical stability compared with the amorphous form [3]: better than the amorphous form
- total impurity content % at 0 months [3]: 0.90%
- total impurity content % at 1 month [3]: 1.58%
- total impurity content % at 2 months [3]: 2.20%
- total impurity content % at 3 months [3]: 2.40%
- total impurity content % at 6 months [3]: 3.29%
